The target of one data set is BRD4BD1 (Homo sapiens, UniProt O60885). The experiment in a line: BRD4 AlphaScreen competition assay (JQ1-biotin displacement), BRD4BD1. Format: binding.
In data set [1] the target is T1, BRD4BD2 (Homo sapiens, UniProt O60885). The experiment in a line: BRD4 AlphaScreen competition assay (JQ1-biotin displacement), BRD4BD2. Format: binding. In general terms: In Alpha technology, singlet oxygen from a donor bead excites a nearby acceptor bead.
For data set [2], the target named is T2, BRD4BD2-DCAF16 ternary complex (Homo sapiens, UniProt O60885+Q9NXF7).
T2 construct: E3 ligase to bromodomain 2 (BRD4BD2); His6 (N); StrepII (N); Avi (N); made in house; host or cells: BRD4BD2: E. coli (pET100/D-TOPO)
The experiment in a line: DDB1-DCAF16-BRD4BD2 TR-FRET ternary complex formation assay. It counts as biochemical. The settings on record: for TR-FRETmax (520 nm/490 nm ratio): 6 h degrader incubation; for BRD4BD2-DCAF16 ternary complex formation / DCAF16 recruitment (in words): time-dependent TR-FRET; for incubation time of saturation / maximum TR-FRET signal: measured at 1, 2, 4, 6 and 24 h. The source says: To determine the relationship between covalent warheads and DCAF16 recruitment to BRD4BD2, we used a time-resolved fluorescence energy transfer (TR-FRET) assay to measure induced BRD4BD2-DCAF16 ternary complex formation (Fig. 3A).
Furthermore, we wanted to determine the kinetics of the BRD4BD2-DCAF16 interaction given its covalent nature. […] Additionally, to understand the relationship between ternary complex formation kinetics and warhead reactivity we measured the depletion of the covalent analogs in the presence of glutathione using MS (Table S2). […] Titrations of compounds to induce the DCAF16-BRD4BD complex were carried out by mixing 100 nM biotinylated BRD4BD2, 500 nM BODIPY-FL labeled DDB1ΔB-DCAF16 variants, and 2 nM terbium-coupled streptavidin (Invitrogen) in an assay buffer containing 50 mM HEPES pH 8.0, 200 mM NaCl, 0.1% Pluronic F-68 solution (Sigma), 0.5% bovine serum albumin (BSA) (w/v) and 1 mM TCEP. […] The TR-FRET signal of each data point was extracted by calculating the 520/490 nm ratio.
(In TR-FRET formats the signal depends on donor and acceptor labels being close together.)

Data set [3] deals with T3, BRD4 (Homo sapiens, UniProt O60885). As to the kind of experiment: Washout experiment, Western blot of BRD4 degradation in K562 cells. The arrangement: an 11 amino acid peptide knock-in tag to a protein-of-interest using CRISPR insertion; endogenous in cells. It counts as cell-based. The settings on record: K562, 1 μM; for BRD4 degradation after washout compared to no washout (in words): 4 h treatment, 20 h compound-free vs 24 h no washout. On the procedure: This experiment involves cell treatment and incubation with a ‘covalent’ compound, followed by a wash-step where the cells are washed and resuspended in compound-free cell media.
Cells were washed with PBS and lysed in RIPA lysis buffer (Thermo Fisher Scientific) with Halt Protease Inhibitor Cocktail (Thermo Fisher Scientific) and Benzonase (Sigma-Aldrich) for 20 min on ice. […] Membranes were blocked in Intercept (PBS) Blocking Buffer (LI-COR Biosciences) and incubated with primary antibodies overnight at 4 °C. The membranes were then washed in Tris-buffered saline with Tween-20 (TBS-T), incubated for 1 h with secondary IRDye-conjugated antibodies (LI-COR Biosciences) and washed three times in TBS-T for 5 min before near-infrared western blot detection on an Odyssey Imaging System (LI-COR Biosciences).

For the next data set, the system named is glutathione. The experiment in a line: GSH stability (glutathione reactivity) assay by LC-MS/MS. Format: physicochemical. The settings on record: PBS containing 5 mM reduced glutathione; PBS + 5 mM GSH; extrapolated from 240 min assay. From the text:
Furthermore, we wanted to determine the kinetics of the BRD4BD2-DCAF16 interaction given its covalent nature. […] Additionally, to understand the relationship between ternary complex formation kinetics and warhead reactivity we measured the depletion of the covalent analogs in the presence of glutathione using MS (Table S2). […].

For data set [4], the target named is T1, BRD4BD2. The experiment in a line: BRD4BD2-eGFP and mCherry flow reporter degradation assay, wild type K562 cells. Conditions: for DCAF16 dependent BRD4BD2 degradation (in words) / DC50: K562 cells, 16 h incubation; for Dmax: K562, read-out: maximal degradation (Dmax/16h) of BRD4BD2, K562 cells, 16 h incubation; for DC50: read-out: DC50 of BRD4BD2 degradation.
Text: This assay involves the co-expression of mCherry with BRD4BD1/2 fused to an enhanced green fluorescent protein (eGFP) tag, and the subsequent fluorescence measurement of BRD4BD1/2-eGFP normalized to mCherry as a readout for BRD4BD1/2 degradation. It allows for a quantitative, rapid, and facile screening of several MGDs, in a dose-and time-dependent manner. […] Thus, the BRD4BD2 stability system was used to test all subsequent GNE011 analogs in wild type and DCAF16−/− cells.
One day after infection, reporter cells were selected with puromycin at a concentration of 2 μg/mL.
K562 cells stably expressing degradation reporter were dosed with DMSO or degraders at various times and concentrations using D300e Digital Dispenser (HP). The fluorescent signal was quantified by flow cytometry (LSRFortessa flow cytometer, BD Biosciences) and analyzed using FlowJo (flow cytometry analysis software, BD Biosciences). The geometric mean of the eGFP and mCherry fluorescent signal for round and mCherry-positive cells was calculated. GFP expression was normalized to mCherry signal and drug treatments were compared to DMSO controls.

Data set [5] addresses T3, BRD4. The experiment in a line: BRD4-HiBiT assay, WT JURKAT cells. Format: cell-based. The arrangement: an 11 amino acid peptide knock-in tag to a protein-of-interest using CRISPR insertion; endogenous in cells; host or cells: JURKAT, HiBiT-edited (wild type or DCAF16 knockout). The settings on record: 6 h. As to the method:
(§1) Thereafter, we sought to characterize the BRD4 cellular degradation potencies in a dose-dependent manner at a shorter time point to minimize secondary effects. This was performed using the bioluminescent HiBiT-BRD4 assay, which consists of an 11 amino acid peptide knock-in tag to a protein-of-interest using CRISPR insertion. A complementary polypeptide (LgBiT) detects and interacts with all HiBiT tagged proteins, thereby reconstituting a luminescent NanoBiT enzyme, that can be quantified by its bioluminescence. WT and DCAF16 KO JURKAT cell lines expressing the BRD4-HiBiT system were generated to quantify dose-dependent BRD4 degradation after 6 h incubation (Fig. 4C).
(§2) After 6 h, the plates were subjected to Nano-Glo HiBiT Lytic detection system (Promega, #N3040) as described in manufacturer's manual. The assays were performed in biological triplicate. DC50 values were determined using a non-linear regression curve fit in GraphPad PRISM 9.5.1.
For orientation: With HiBiT, luminescence reflects the tagged protein that the partner subunit can reach.

Data set [6] addresses T3, BRD4. The experiment in a line: Western blot of BRD4 degradation, DCAF16 KO K562 cells. Format: cell-based. The arrangement: an 11 amino acid peptide knock-in tag to a protein-of-interest using CRISPR insertion; endogenous in cells. Conditions: DCAF16 KO K562, 1 μM, 16 h. As to the method: (§3) Western blotting was used to determine the degradation potencies of the covalent BRD4 degraders.
(§4) Cells were washed with PBS and lysed in RIPA lysis buffer (Thermo Fisher Scientific) with Halt Protease Inhibitor Cocktail (Thermo Fisher Scientific) and Benzonase (Sigma-Aldrich) for 20 min on ice. The insoluble fraction was removed by centrifugation, the protein concentration was quantified using a BCA protein assay kit (Thermo Fisher Scientific), and an equal amount of lysate was run on SDS–PAGE 4–12% Bis–Tris Protein Gels (Thermo Fisher Scientific) and then transferred to nitrocellulose membrane with a XCell II Blot Module Wet Tank Transfer System (Thermo Fisher Scientific). Membranes were blocked in Intercept (PBS) Blocking Buffer (LI-COR Biosciences) and incubated with primary antibodies overnight at 4 °C. The membranes were then washed in Tris-buffered saline with Tween-20 (TBS-T), incubated for 1 h with secondary IRDye-conjugated antibodies (LI-COR Biosciences) and washed three times in TBS-T for 5 min before near-infrared western blot detection on an Odyssey Imaging System (LI-COR Biosciences).

Data set [7] has as its target T3, BRD4. As to the kind of experiment: Western blot of BRD4 degradation, wild-type K562 cells. The arrangement: an 11 amino acid peptide knock-in tag to a protein-of-interest using CRISPR insertion; endogenous in cells. Conditions: wild-type K562, 1 μM, 16 h. It counts as cell-based. As to the method:
as §3, §4

The target in data set [8] is T3, BRD4. As to the kind of experiment: BRD4-HiBiT assay, DCAF16 KO JURKAT cells. The settings on record: 6 h. It counts as cell-based. Set-up: an 11 amino acid peptide knock-in tag to a protein-of-interest using CRISPR insertion; endogenous in cells; host or cells: JURKAT, HiBiT-edited (wild type or DCAF16 knockout). As to the method: as §1, §2

The values below come from PMC11960843, “Exploration of the tunability of BRD4 degradation by DCAF16 trans-labelling covalent glues” (European journal of medicinal chemistry, 2024).

For orientation: IC50 means the concentration that gives 50% inhibition. Broadly, the half-life is how long it takes for the measured level to halve. For orientation: DC50 means the concentration giving 50% degradation.

Where two headings read alike, the source gives them in different places.

T2 sequence (Q9NXF7 whole entry, other chains not shown): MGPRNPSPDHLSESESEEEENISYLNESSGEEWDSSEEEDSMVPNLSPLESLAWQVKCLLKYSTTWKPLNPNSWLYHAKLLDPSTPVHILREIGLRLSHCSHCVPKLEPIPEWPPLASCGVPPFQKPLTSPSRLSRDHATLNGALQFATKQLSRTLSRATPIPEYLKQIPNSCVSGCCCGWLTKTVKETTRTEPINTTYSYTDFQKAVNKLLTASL

As to `Cc1sc2c(c1C)C(c1ccc(N)cc1)=N[C@@H](CC(=O)OC(C)(C)C)c1nnc(C)n1-2` [MMH248, tert-butyl (S)-2-(4-(4-aminophenyl)-2,3,9-trimethyl-6H-thieno[3,2-f][1,2,4]triazolo[4,3-a][1,4]diazepin-6-yl)acetate], the values for the half-maximal inhibitory concentration (IC50) at BRD4BD1 and at BRD4BD2 [1] were 12.5 nM and 4.29 nM, respectively.
As for `Cc1sc2c(c1C)C(c1ccc(I)cc1)=N[C@@H](CC(=O)OC(C)(C)C)c1nnc(C)n1-2` [MMH263, tert-butyl (S)-2-(4-(4-iodophenyl)-2,3,9-trimethyl-6H-thieno[3,2-f][1,2,4]triazolo[4,3-a][1,4]diazepin-6-yl)acetate], the IC50 was determined as 11.7 nM on BRD4BD1 and 4.96 nM at BRD4BD2 [1].
On to `COC(=O)/C=C/c1ccc(C2=N[C@@H](CC(=O)OC(C)(C)C)c3nnc(C)n3-c3sc(C)c(C)c32)cc1` [MMH269, methyl (S,E)-3-(4-(6-(2-(tert-butoxy)-2-oxoethyl)-2,3,9-trimethyl-6H-thieno[3,2-f][1,2,4]triazolo[4,3-a][1,4]diazepin-4-yl)phenyl)acrylate], for which the IC50 was found to be 10.5 nM on BRD4BD1 (read-out: IC50 BRD4BD1) and 5.07 nM on BRD4BD2 [1] (read-out: IC50 BRD4BD2). The “TR-FRETmax (520 nm/490 nm ratio)” value in [2] is listed as 0.18. For the same compound, in data set [2], the “BRD4BD2-DCAF16 ternary complex formation / DCAF16 recruitment (in words)” value is reported as “no significant DCAF16 recruitment”. Further, the “BRD4 degradation without washout (in words)” value at BRD4 [3] (24 h no washout) is recorded as “showed BRD4 degradation in 24 h no washout experiments”. For the same compound, in the data set with glutathione, the half-life is above 12.5 h. Also, on BRD4BD2 [4], the “DCAF16 dependent BRD4BD2 degradation (in words)” value is recorded as “almost no DCAF16 dependent BRD4BD2 degradation”.
As for `Cc1sc2c(c1C)C(c1ccc(/C=C/C=O)cc1)=N[C@@H](CC(=O)OC(C)(C)C)c1nnc(C)n1-2` [TMX1, tert-butyl (S,E)-2-(2,3,9-trimethyl-4-(4-(3-oxoprop-1-en-1-yl)phenyl)-6H-thieno[3,2-f][1,2,4]triazolo[4,3-a][1,4]diazepin-6-yl)acetate], the IC50 at BRD4BD1 (read-out: IC50 BRD4BD1) came to 8.78 nM. Besides, in data set [2], the “TR-FRETmax (520 nm/490 nm ratio)” value is recorded as 1.34 and the “incubation time of saturation / maximum TR-FRET signal” value is 1 h. The IC50 at BRD4BD2 [1] (read-out: IC50 BRD4BD2) came to 33.9 nM. On BRD4 [3], the “BRD4 degradation after washout compared to no washout (in words)” value was “no or minimal difference”. Also, the half-life in the data set on glutathione was 6.92 h. Also, on BRD4 [5], the BRD4 degradation is on record as below 60% and the “BRD4 degradation (in words)” value was “noticeable BRD4 degradation”. The “BRD4 degradation by Western blot in DCAF16 KO (in words)” value at BRD4 [6] was “completely rescued by DCAF16 KO”. For the same compound, at BRD4BD2 [4], the Dmax is 75% and the half-maximal degradation concentration (DC50) came out at 64 nM. Also, the “BRD4 degradation by Western blot (in words)” value at BRD4 [7] is recorded as “nearly complete BRD4 degradation”. In addition, the “BRD4 degradation in DCAF16 KO (in words)” value at BRD4 [8] is listed as “completely rescued by DCAF16 KO”.
On to `Cc1sc2c(c1C)C(c1ccc(C#CCO)cc1)=N[C@@H](CC(=O)OC(C)(C)C)c1nnc(C)n1-2` [TMX458, tert-butyl (S)-2-(4-(4-(3-hydroxyprop-1-yn-1-yl)phenyl)-2,3,9-trimethyl-6H-thieno[3,2-f][1,2,4]triazolo[4,3-a][1,4]diazepin-6-yl)acetate], for which the half-inhibitory concentration (IC50) on BRD4BD1 (read-out: IC50 BRD4BD1) came to 10.1 nM. Moreover, in [2], the “TR-FRETmax (520 nm/490 nm ratio)” value is 0.16 and the “BRD4BD2-DCAF16 ternary complex formation / DCAF16 recruitment (in words)” value was “no significant DCAF16 recruitment”. For the same compound, the half-inhibitory concentration (IC50) at BRD4BD2 [1] (read-out: IC50 BRD4BD2) was 3.92 nM. For the same compound, on BRD4BD2 [4], the Dmax was 10%, the “DCAF16 dependent BRD4BD2 degradation (in words)” value was “completely inactive” and the DC50 was above 10000 nM.
Turning to `Cc1sc2c(c1C)C(c1ccc(C#CC=O)cc1)=N[C@@H](CC(=O)OC(C)(C)C)c1nnc(C)n1-2` [TMX4128, tert-butyl (S)-2-(2,3,9-trimethyl-4-(4-(3-oxoprop-1-yn-1-yl)phenyl)-6H-thieno[3,2-f][1,2,4]triazolo[4,3-a][1,4]diazepin-6-yl)acetate], the IC50 at BRD4BD1 (read-out: IC50 BRD4BD1) amounted to 2.2 nM. Moreover, in [2], the “TR-FRETmax (520 nm/490 nm ratio)” value is listed as 0.65, the “incubation time of saturation / maximum TR-FRET signal” value is recorded as 1 h and the “BRD4BD2-DCAF16 ternary complex formation / DCAF16 recruitment (in words)” value was “disintegration of the ternary complex overtime”. Also, on BRD4BD2 [1] (read-out: IC50 BRD4BD2), the IC50 is 21.7 nM. The “BRD4 degradation after washout compared to no washout (in words)” value on BRD4 [3] is “no or minimal difference”. Also, the half-life with glutathione was 8.83 h. Besides, at BRD4 [5], the BRD4 degradation was below 60% and the “BRD4 degradation (in words)” value is “noticeable BRD4 degradation”. In addition, the BRD4 degradation at BRD4 [5] (at 10 μM) was ~ 73%. At BRD4 [6], the “BRD4 degradation by Western blot in DCAF16 KO (in words)” value was “completely rescued by DCAF16 KO”. At BRD4BD2 [4], the Dmax stood at 69% and the DC50 came to 703 nM. Moreover, the “BRD4 degradation by Western blot (in words)” value at BRD4 [7] was “nearly complete BRD4 degradation”. The “BRD4 degradation in DCAF16 KO (in words)” value at BRD4 [8] is “completely rescued by DCAF16 KO”.
